Measured values: US20250215012A1, “IKZF2 DEGRADERS AND USES THEREOF” (REGENTS OF THE UNIVERSITY OF MICHIGAN, priority 2022, published 2025)

Target: IKZF2 (Homo sapiens (Human), UniProt Q96SW2+Q9UKS7)
Test: IKZF2 HiBiT Assay (Jurkat-IKZF2-HiBiT cell line)
Type: cell-based
Conditions: Jurkat-IKZF2-HiBiT cells, 24 hours; for DC50: read-out: HiBit assay degradation analysis DC50; for Dmax: read-out: HiBit assay degradation analysis Dmax
Protocol: Degradation of IKZF2 protein is determined by IKZF2 HiBiT assay using the Jurkat-IKZF2-HiBiT (Promega) cell line. Briefly, cells are seeded in culture medium. Compounds are serially diluted in culture medium, and certain volume of the diluted compounds is added to the appropriate well of the plate. After the addition of compounds, the cells are incubated. At the end of treatment, Nano-Glo HiBiT Lytic Detection Reagent (Promega) is added to each well, and then the plates are incubated at room temperature for a certain time period. The luminescent signal is measured using a CALRIOstar plate reader (BMG Labtech). The readings are normalized to the DMSO-treated cells and the IC50 is calculated by nonlinear regression (four parameters sigmoid fitted with variable slope, least squares fit, and no constraint) analysis using the GraphPad Prism 8 software.
Degradation of IKZF2 protein was determined by IKZF2 HiBiT assay using the Jurkat-IKZF2-HiBiT (Promega) cell line. […] Compounds were serially diluted in culture medium, and 20 μl of the diluted compounds were added to the appropriate wells of the plate. After the addition of compounds, the cells were incubated at 37° C. in an atmosphere of 5% CO2 for 24 hours. At the end of treatment, 40 ul of Nano-Glo HiBiT Lytic Detection Reagent (Promega) was added to each well, and then the plates were incubated at room temperature for 10-20 minutes. The luminescent signal was measured using a CALRIOstar plate reader (BMG Labtech). The readings were normalized to the DMSO-treated cells and the IC50 was calculated by nonlinear regression (four parameters sigmoid fitted with variable slope, least squares fit, and no constraint) analysis using the GraphPad Prism 8 software.

Chain of IKZF2 (Q9UKS7 whole entry): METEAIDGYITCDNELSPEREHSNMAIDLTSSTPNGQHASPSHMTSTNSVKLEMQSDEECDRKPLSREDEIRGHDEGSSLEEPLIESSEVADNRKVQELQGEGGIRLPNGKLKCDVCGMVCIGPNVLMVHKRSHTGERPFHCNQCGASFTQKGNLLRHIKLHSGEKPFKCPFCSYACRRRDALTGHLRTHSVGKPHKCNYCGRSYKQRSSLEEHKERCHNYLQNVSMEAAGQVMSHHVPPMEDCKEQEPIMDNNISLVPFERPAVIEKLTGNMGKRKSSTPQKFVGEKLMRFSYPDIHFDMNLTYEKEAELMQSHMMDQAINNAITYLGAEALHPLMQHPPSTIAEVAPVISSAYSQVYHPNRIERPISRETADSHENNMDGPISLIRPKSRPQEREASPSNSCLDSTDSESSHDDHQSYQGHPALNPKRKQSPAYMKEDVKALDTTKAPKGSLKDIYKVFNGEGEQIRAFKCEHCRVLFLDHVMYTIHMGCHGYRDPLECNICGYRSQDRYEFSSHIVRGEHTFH
Chain of IKZF2 (Q96SW2 whole entry): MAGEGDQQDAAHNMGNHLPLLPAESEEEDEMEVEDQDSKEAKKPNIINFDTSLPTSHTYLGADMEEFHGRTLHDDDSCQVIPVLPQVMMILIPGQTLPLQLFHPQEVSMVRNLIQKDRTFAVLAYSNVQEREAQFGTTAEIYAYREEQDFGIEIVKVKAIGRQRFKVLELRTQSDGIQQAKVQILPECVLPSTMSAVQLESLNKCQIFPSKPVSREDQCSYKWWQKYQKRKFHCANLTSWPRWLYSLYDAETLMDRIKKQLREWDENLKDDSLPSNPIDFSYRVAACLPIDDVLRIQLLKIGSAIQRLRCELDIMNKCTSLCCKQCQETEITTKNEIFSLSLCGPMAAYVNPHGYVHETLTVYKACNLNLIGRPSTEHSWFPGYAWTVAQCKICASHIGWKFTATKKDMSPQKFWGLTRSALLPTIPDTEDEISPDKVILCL
Chain of IKZF2 (Q16531 whole entry partner): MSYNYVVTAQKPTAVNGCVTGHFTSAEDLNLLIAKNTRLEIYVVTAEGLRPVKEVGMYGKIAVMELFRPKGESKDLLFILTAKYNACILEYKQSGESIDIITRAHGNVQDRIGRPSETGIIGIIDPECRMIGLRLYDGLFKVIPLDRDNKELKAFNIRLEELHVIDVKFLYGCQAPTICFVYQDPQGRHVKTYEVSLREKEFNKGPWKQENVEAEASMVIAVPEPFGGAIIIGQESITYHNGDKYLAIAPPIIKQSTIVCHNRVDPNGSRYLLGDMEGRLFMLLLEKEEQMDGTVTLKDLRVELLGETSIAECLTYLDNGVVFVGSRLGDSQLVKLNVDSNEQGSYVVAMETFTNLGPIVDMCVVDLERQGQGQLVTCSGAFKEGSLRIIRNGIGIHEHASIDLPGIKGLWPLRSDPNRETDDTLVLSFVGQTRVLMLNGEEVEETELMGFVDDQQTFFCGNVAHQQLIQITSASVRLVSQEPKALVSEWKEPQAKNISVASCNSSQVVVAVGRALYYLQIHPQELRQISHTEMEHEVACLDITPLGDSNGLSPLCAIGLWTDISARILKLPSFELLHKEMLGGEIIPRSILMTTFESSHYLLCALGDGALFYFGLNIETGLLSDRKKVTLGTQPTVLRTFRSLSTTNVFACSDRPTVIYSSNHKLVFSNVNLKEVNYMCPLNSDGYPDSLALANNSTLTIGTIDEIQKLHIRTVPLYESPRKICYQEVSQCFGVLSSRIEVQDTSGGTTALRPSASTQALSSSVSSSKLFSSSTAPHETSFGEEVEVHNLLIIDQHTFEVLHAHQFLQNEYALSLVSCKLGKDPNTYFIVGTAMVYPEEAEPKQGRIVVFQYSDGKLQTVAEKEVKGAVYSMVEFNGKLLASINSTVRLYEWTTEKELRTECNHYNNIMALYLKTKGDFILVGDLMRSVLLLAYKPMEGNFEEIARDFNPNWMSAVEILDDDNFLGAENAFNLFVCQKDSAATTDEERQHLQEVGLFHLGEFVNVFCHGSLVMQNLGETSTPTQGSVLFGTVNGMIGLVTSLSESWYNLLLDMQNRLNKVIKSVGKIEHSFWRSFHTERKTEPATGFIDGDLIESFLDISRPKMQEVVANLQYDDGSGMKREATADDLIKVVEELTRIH

Q: How did the DC50 turn out when O=C1CCC(N2Cc3c(ccc4c3OCC43CCN(Cc4ccc(-n5cccn5)cc4)CC3)C2=O)C(=O)N1 (centres unmarked) [Compound A222, 3-(1′-(4-(1H-pyrazol-1-yl)benzyl)-6-oxo-6,8-dihydro-2H,7H-spiro[furo[2,3-e]isoindole-3,4′-piperidin]-7-yl)piperidine-2,6-dione] was run?
A: Its DC50 is greater than 500 nM.

Q: And the Dmax?
A: The Dmax was 40 to 60%.

Q: Which results are given for O=C1CCC(N2Cc3c(ccc4c3OCC43CCN(Cc4cccc(C(F)F)c4)CC3)C2=O)C(=O)N1 (centres unmarked) [Compound A94, 3-(1′-(3-(difluoromethyl)benzyl)-6-oxo-6,8-dihydro-2H,7H-spiro[furo[2,3-e]isoindole-3,4′-piperidin]-7-yl)piperidine-2,6-dione]?
A: DC50: 200 to 500 nM; Dmax: 40 to 60%

Q: O=C1CCC(N2Cc3c(ccc4c3OCC43CCN(Cc4c(F)ccc5[nH]ccc45)CC3)C2=O)C(=O)N1 (centres unmarked) [Compound A137, 3-(1′-((5-fluoro-1H-indol-4-yl)methyl)-6-oxo-6,8-dihydro-2H,7H-spiro[furo[2,3-e]isoindole-3,4′-piperidin]-7-yl)piperidine-2,6-dione] was tested. Which DC50 did it give?
A: The DC50 was less than 50 nM.

Q: And the Dmax?
A: The Dmax was 60 to 80%.

Q: For CO[C@H]1C[C@H](n2cc(-c3cccc(CN4CCC5(CC4)COc4c5ccc5c4CN([C@H]4CCC(=O)NC4=O)C5=O)c3)cn2)C1 [Compound A297, (S)-3-(1′-(3-(1-((1r,3r)-3-methoxycyclobutyl)-1H-pyrazol-4-yl)benzyl)-6-oxo-6,8-dihydro-2H,7H-spiro[furo[2,3-e]isoindole-3,4′-piperidin]-7-yl)piperidine-2,6-dione], which DC50 is on record?
A: Its DC50 is less than 50 nM.

Q: And the Dmax?
A: The Dmax was 60 to 80%.

Q: Which results are given for O=C1CCC(N2Cc3c(ccc4c3OCC43CCN(Cc4cccc5ncccc45)CC3)C2=O)C(=O)N1 (centres unmarked) [Compound A38, 3-(6-oxo-1′-(quinolin-5-ylmethyl)-6,8-dihydro-2H,7H-spiro[furo[2,3-e]isoindole-3,4′-piperidin]-7-yl)piperidine-2,6-dione]?
A: DC50: 50 to 200 nM; Dmax: 60 to 80%

Q: CCOc1ccc(CN2CCC3(CC2)COc2c3ccc3c2CN(C2CCC(=O)NC2=O)C3=O)cn1 (centres unmarked) [Compound A202, 3-(1′-((6-ethoxypyridin-3-yl)methyl)-6-oxo-6,8-dihydro-2H,7H-spiro[furo[2,3-e]isoindole-3,4′-piperidin]-7-yl)piperidine-2,6-dione] was tested. Which DC50 did it give?
A: The DC50 was greater than 500 nM.

Q: And the Dmax?
A: Its Dmax is less than 40%.

Q: With O=C1CCC(N2Cc3c(ccc4c3OCC43CCN(CC4C5CC6CC(C5)CC4C6)CC3)C2=O)C(=O)N1 (centres unmarked) [Compound A23, 3-(1′-(((1r,3r,5r,7r)-adamantan-2-yl)methyl)-6-oxo-6,8-dihydro-2H,7H-spiro[furo[2,3-e]isoindole-3,4′-piperidin]-7-yl)piperidine-2,6-dione] as the molecule, how does the DC50 read?
A: The DC50 was greater than 500 nM.

Q: What about the Dmax of the same molecule?
A: The Dmax was less than 40%.

Q: What does the source list for O=C1CCC(N2Cc3c(ccc4c3OCC43CCN(Cc4ccc(-c5cn[nH]c5)cc4)CC3)C2=O)C(=O)N1 (centres unmarked) [Compound A162, 3-(1′-(4-(1H-pyrazol-4-yl)benzyl)-6-oxo-6,8-dihydro-2H,7H-spiro[furo[2,3-e]isoindole-3,4′-piperidin]-7-yl)piperidine-2,6-dione]?
A: DC50: 50 to 200 nM; Dmax: 60 to 80%

Q: Which DC50 does the source give for O=C1CCC(N2Cc3c(ccc4c3OCC43CCN(Cc4ccc5c(cnn5CCO)c4)CC3)C2=O)C(=O)N1 (centres unmarked) [Compound A344, 3-(1′-((1-(2-hydroxyethyl)-1H-indazol-5-yl)methyl)-6-oxo-6,8-dihydro-2H,7H-spiro[furo[2,3-e]isoindole-3,4′-piperidin]-7-yl)piperidine-2,6-dione] here?
A: The DC50 was greater than 500 nM.

Q: What about the Dmax of the same molecule?
A: The Dmax was 40 to 60%.

Q: For O=C1CCC(N2Cc3c(ccc4c3OCC43CCN(Cc4cnn(S(=O)(=O)c5cccc(Cl)c5)c4)CC3)C2=O)C(=O)N1 [Compound A350, (S)-3-(1′-((1-((3-chlorophenyl)sulfonyl)-1H-pyrazol-4-yl)methyl)-6-oxo-6,8-dihydro-2H,7H-spiro[furo[2,3-e]isoindole-3,4′-piperidin]-7-yl)piperidine-2,6-dione], which DC50 is on record?
A: The DC50 was less than 50 nM.

Q: O=C1CCC(N2Cc3c(ccc4c3OCC43CCN(Cc4cnn(S(=O)(=O)c5ccc(F)c(F)c5)c4)CC3)C2=O)C(=O)N1 [Compound A353, (S)-3-(1′-((1-((3,4-difluorophenyl)sulfonyl)-1H-pyrazol-4-yl)methyl)-6-oxo-6,8-dihydro-2H,7H-spiro[furo[2,3-e]isoindole-3,4′-piperidin]-7-yl)piperidine-2,6-dione] was tested. Which DC50 did it give?
A: The DC50 was greater than 500 nM.

Q: What does the source list for O=C1CC[C@H](N2Cc3c(ccc4c3OCC43CCN(Cc4cc(F)cc(-c5cnn(C6COC6)c5)c4)CC3)C2=O)C(=O)N1 [Compound A276, (S)-3-(1′-(3-fluoro-5-(1-(oxetan-3-yl)-1H-pyrazol-4-yl)benzyl)-6-oxo-6,8-dihydro-2H,7H-spiro[furo[2,3-e]isoindole-3,4′-piperidin]-7-yl)piperidine-2,6-dione]?
A: DC50: < 50 nM; Dmax: 40 to 60%

Q: CN(C)C(=O)c1ccc(CN2CCC3(CC2)COc2c3ccc3c2CN(C2CCC(=O)NC2=O)C3=O)cc1 (centres unmarked) [Compound A201, 4-((7-(2,6-dioxopiperidin-3-yl)-6-oxo-7,8-dihydro-2H,6H-spiro[furo[2,3-e]isoindole-3,4′-piperidin]-1′-yl)methyl)-N,N-dimethylbenzamide] was tested. Which DC50 did it give?
A: The DC50 was greater than 500 nM.

Q: And the Dmax?
A: The Dmax was less than 40%.

Q: With O=C1CCC(N2Cc3c(ccc4c3OCC43CCN(Cc4cccc(NC(=O)c5ccc(Cl)cc5)c4)CC3)C2=O)C(=O)N1 (centres unmarked) [Compound A178, 4-chloro-N-(3-((7-(2,6-dioxopiperidin-3-yl)-6-oxo-7,8-dihydro-2H,6H-spiro[furo[2,3-e]isoindole-3,4′-piperidin]-1′-yl)methyl)phenyl)benzamide] as the molecule, how does the DC50 read?
A: Its DC50 is less than 50 nM.

Q: And the Dmax?
A: Its Dmax is greater than 80%.

Q: Which DC50 does the source give for O=C1CC[C@H](N2Cc3c(ccc4c3OCC43CCN(Cc4cnn(S(=O)(=O)c5ccccc5Cl)c4)CC3)C2=O)C(=O)N1 [Compound A349, (S)-3-(1′-((1-((2-chlorophenyl)sulfonyl)-1H-pyrazol-4-yl)methyl)-6-oxo-6,8-dihydro-2H,7H-spiro[furo[2,3-e]isoindole-3,4′-piperidin]-7-yl)piperidine-2,6-dione] here?
A: Its DC50 is less than 50 nM.

Q: What about the Dmax of the same molecule?
A: Its Dmax is 60 to 80%.

Q: How did the DC50 turn out when O=C1CCC(N2Cc3c(ccc4c3OCC43CCN(Cc4cccc5cc[nH]c45)CC3)C2=O)C(=O)N1 (centres unmarked) [Compound A59, 3-(1′-((1H-indol-7-yl)methyl)-6-oxo-6,8-dihydro-2H,7H-spiro[furo[2,3-e]isoindole-3,4′-piperidin]-7-yl)piperidine-2,6-dione] was run?
A: Its DC50 is 50 to 200 nM.

Q: And the Dmax?
A: Its Dmax is greater than 80%.

Q: Which results are given for O=C1CCC(N2Cc3c(ccc4c3OCC43CCN(Cc4cccc(-n5ccnc5)c4)CC3)C2=O)C(=O)N1 (centres unmarked) [Compound A108, 3-(1′-(3-(1H-imidazol-1-yl)benzyl)-6-oxo-6,8-dihydro-2H,7H-spiro[furo[2,3-e]isoindole-3,4′-piperidin]-7-yl)piperidine-2,6-dione]?
A: DC50: > 500 nM; Dmax: 40 to 60%

Q: For O=C1CCC(N2Cc3c(ccc4c3OCC43CCN(Cc4cccc(N5CCOCC5)c4)CC3)C2=O)C(=O)N1 (centres unmarked) [Compound A97, 3-(1′-(3-morpholinobenzyl)-6-oxo-6,8-dihydro-2H,7H-spiro[furo[2,3-e]isoindole-3,4′-piperidin]-7-yl)piperidine-2,6-dione], which DC50 is on record?
A: The DC50 was greater than 500 nM.

Q: What about the Dmax of the same molecule?
A: Its Dmax is 40 to 60%.

Q: How did the DC50 turn out when O=C1CCC(N2Cc3c(ccc4c3OCC43CCN(Cc4cccc(Oc5ccccc5)c4)CC3)C2=O)C(=O)N1 (centres unmarked) [Compound A86, 3-(6-oxo-1′-(3-phenoxybenzyl)-6,8-dihydro-2H,7H-spiro[furo[2,3-e]isoindole-3,4′-piperidin]-7-yl)piperidine-2,6-dione] was run?
A: The DC50 was greater than 500 nM.

Q: What about the Dmax of the same molecule?
A: The Dmax was 40 to 60%.

Q: O=C1CCC(N2Cc3c(ccc4c3OCC43CCN(Cc4cccc(Cn5ccnc5)c4)CC3)C2=O)C(=O)N1 (centres unmarked) [Compound A139, 3-(1′-(3-((1H-imidazol-1-yl)methyl)benzyl)-6-oxo-6,8-dihydro-2H,7H-spiro[furo[2,3-e]isoindole-3,4′-piperidin]-7-yl)piperidine-2,6-dione] was tested. Which DC50 did it give?
A: The DC50 was 200 to 500 nM.

Q: And the Dmax?
A: The Dmax was 60 to 80%.

Q: With COc1cccc(CN2CCC3(CC2)COc2c3ccc3c2CN(C2CCC(=O)NC2=O)C3=O)c1 (centres unmarked) [Compound A212, 3-(1′-(3-methoxybenzyl)-6-oxo-6,8-dihydro-2H,7H-spiro[furo[2,3-e]isoindole-3,4′-piperidin]-7-yl)piperidine-2,6-dione] as the molecule, how does the DC50 read?
A: Its DC50 is greater than 500 nM.

Q: What about the Dmax of the same molecule?
A: The Dmax was 40 to 60%.

Q: For O=C1CCC(N2Cc3c(ccc4c3OCC43CCN(Cc4cccc(Cl)c4)CC3)C2=O)C(=O)N1 (centres unmarked) [Compound A216, 3-(1′-(3-chlorobenzyl)-6-oxo-6,8-dihydro-2H,7H-spiro[furo[2,3-e]isoindole-3,4′-piperidin]-7-yl)piperidine-2,6-dione], which DC50 is on record?
A: Its DC50 is 50 to 200 nM.

Q: What about the Dmax of the same molecule?
A: Its Dmax is 60 to 80%.

Q: With O=C1CCC(N2Cc3c(ccc4c3OCC43CCN(Cc4cccc5c4CCC5)CC3)C2=O)C(=O)N1 (centres unmarked) [Compound A207, 3-(1′-((2,3-dihydro-1H-inden-4-yl)methyl)-6-oxo-6,8-dihydro-2H,7H-spiro[furo[2,3-e]isoindole-3,4′-piperidin]-7-yl)piperidine-2,6-dione] as the molecule, how does the DC50 read?
A: The DC50 was greater than 500 nM.

Q: And the Dmax?
A: The Dmax was less than 40%.
